{"source": "patent US20090029369A1", "about": "“GENETIC SELECTION SYSTEM TO IDENTIFY PROTEASES, PROTEASE SUBSTRATES AND PROTEASE INHIBITORS” (priority 2005, published 2009)", "key": {"RLY07 cells": {"system": "RLY07 cells", "test": "growth of RLY07 cells expressing the inactive, point-mutated CMV protease (toxicity control)", "format": "cell-based, S. cerevisiae", "description": "(§1) RLY07 cells transformed with the different TRP1-M constructs and a plasmid encoding the CMV protease or the empty vector were inoculated in 3 ml of 2% galactose -ura -leu medium and grown at 30° C. to OD600 1. They were washed with 5 ml H2O and resuspended in 2% galactose -ura -leu -trp medium supplemented with 10% glycerol (=growth selection medium, glycerol promotes CMV protease dimerisation and subsequent proteolytic activity) and diluted to a start OD600 0.01. For the experiments with the coxackievirus 3C protease, preculture medium was 2% glucose -ura -leu, assay medium was 2% glucose -ura -leu trp, and inoculation OD600 0.001. At time zero, assay cultures at the aforesaid start OD600 were distributed in 96-well microtiter plates, with a volume of 150 μl per well, and incubated without shaking at 30° C. At the time points indicated in the “results” section, plates were shaken to resuspend cells before being submitted to light scattering measurement at 595 nm in a Tecan Genios reader for determining cell density.\nCMV protease inhibitors BI31 and BI36 (Boeringher Ingelheim, Quebec) were dissolved in DMSO and added to the assay cultures at time zero of the growth assay. Final DMSO concentration was 1%. […]"}, "CMV protease [1]": {"target": "T1, CMV protease (Human cytomegalovirus, UniProt P16753)", "test": "yeast growth selection assay: RLY07 cells co-expressing Trp1(194)-M substrate and CMV protease", "format": "cell-based", "set-up": "The CMV protease gene encoding amino acids 1-256 of the 75 kDa precursor was obtained by PCR from CMV infected MRC5 human cells; expressed in transfected cells; host or cells: Saccharomyces cerevisiae RLY07 (pdr5Δ snq2Δ yor1Δ); Protease on CEN4-ARS1 plasmid pMH51 under the GAL1 promoter", "conditions": "for effect of increasing concentrations on cell proliferation: concentration series, active protease, ~2 days at 30° C., 96-well plates", "description": "as §1\nCMV protease inhibitors BI31 and BI36 (Boeringher Ingelheim, Quebec) were dissolved in DMSO and added to the assay cultures at time zero of the growth assay. Final DMSO concentration was 1%.\nRLY07 cells co-expressing Trp1^194-M substrate and the CMV protease were incubated with a concentration series of BI31 and BI36 in 96-well microtiter plates and cultivated under selective conditions. […] Importantly, despite this toxicity BI31 still stimulates growth of cells expressing the active protease (triangles). For example, at 50 μM cell density is multiplied by a factor 4 despite 25% toxicity."}, "CMV protease [2]": {"target": "T1, CMV protease", "test": "Western blot of Trp1(194)-M substrate cleavage by CMV protease in yeast", "format": "cell-based", "set-up": "The CMV protease gene encoding amino acids 1-256 of the 75 kDa precursor was obtained by PCR from CMV infected MRC5 human cells; expressed in transfected cells; host or cells: Saccharomyces cerevisiae RLY07; Protease on plasmid pMH51 under the GAL1 promoter", "description": "Yeast whole cell extracts were prepared as described by Burke et al. (Burke, Dawson et al. 2000). Proteins were separated by SDS-PAGE and Western blot analysis was performed according to standard procedures (Ausubel et al., 2003, Current Protocols in Molecular Biology). An HA-monoclonal antibody from Sigma (clone 3F10) was used at a concentration of 30 ng/ml to detect expression of TRP1(194)-M.\nThe Western blot was performed to provide biochemical evidence for inhibition of cleavage of CMV protease by compound BI36 (FIG. 5B). […] As in the Western blot on FIG. 3C, unfortunately no cleavage products could be detected."}, "[3]": {"target": "Trp1-2C/3A substrate: yeast Trp1p with the 13 amino acid coxsackievirus B3 2C/3A cleavage sequence inserted after Gly194 (Saccharomyces cerevisiae; coxsackievirus B3) (UniProt P00912)", "test": "cell-based or functional assay"}, "[4]": {"target": "Trp1(194)-M (short): yeast Trp1p with the 13 amino acid CMV M-site cleavage sequence inserted after Gly194 (Saccharomyces cerevisiae; human cytomegalovirus) (UniProt P00912)", "test": "cell-based or functional assay"}, "[5]": {"target": "Trp1(194)-M (long): yeast Trp1p with the 39 amino acid CMV M-site cleavage sequence inserted after Gly194 (Saccharomyces cerevisiae; human cytomegalovirus) (UniProt P00912)", "test": "cell-based or functional assay"}, "[6]": {"target": "point-mutated Trp1(194)-M (A→E) substrate with HA tags, as blotted, P00912"}, "[7]": {"target": "T2, Trp1(194)-M with HA tags at both the N-terminus and the C-terminus, P00912", "T2 chain": "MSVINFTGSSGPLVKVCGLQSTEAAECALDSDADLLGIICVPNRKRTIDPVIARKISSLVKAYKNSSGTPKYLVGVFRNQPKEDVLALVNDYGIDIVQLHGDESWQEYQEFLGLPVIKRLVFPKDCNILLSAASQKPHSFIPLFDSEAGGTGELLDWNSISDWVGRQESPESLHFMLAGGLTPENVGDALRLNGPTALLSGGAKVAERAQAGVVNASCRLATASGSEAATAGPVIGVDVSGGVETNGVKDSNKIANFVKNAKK"}}}
{"molecule": "CN(Cc1ccc(C(F)(F)F)cc1)C(=O)N1C(=O)C[C@@H]1CSc1ncccn1", "note": "[BI31]", "values": [{"measurement": "toxicity", "setting": "RLY07 cells; 50 μM", "result": 25, "unit": "%"}, {"measurement": "toxic effect on cells (decrease of cell proliferation)", "setting": "RLY07 cells; increasing concentrations, cells expressing inactive protease", "result": "dose-dependent toxic effect"}, {"measurement": "factor by which cell density is multiplied", "setting": "CMV protease [1]; 50 μM, cells expressing the active protease", "result": 4}, {"measurement": "effect of increasing concentrations on cell proliferation", "setting": "CMV protease [1]", "result": "dose-dependent increase of cell proliferation"}]}
{"molecule": "CN(Cc1ccc([N+](=O)[O-])cc1)C(=O)N1C(=O)C[C@@H]1CSc1nnnn1C", "note": "[BI36]", "values": [{"measurement": "EC50", "setting": "CMV protease [1]", "result": 31, "unit": "µM"}, {"measurement": "CMV protease inhibition judged from OD600 versus cells expressing inactive protease", "setting": "CMV protease [1]; 100 μM", "result": "almost completely inhibited"}, {"measurement": "effect of increasing concentrations on cell proliferation", "setting": "CMV protease [1]", "result": "dose-dependent increase of cell proliferation"}, {"measurement": "inhibition of proteolysis (Western blot)", "setting": "CMV protease [2]; 10 μM", "result": "only slightly inhibited"}, {"measurement": "inhibition of cleavage (Western blot)", "setting": "CMV protease [2]; 100 μM", "result": "inhibits the cleavage almost completely"}, {"measurement": "inhibition of substrate cleavage (Western blot)", "setting": "CMV protease [2]; concentration series 100 μM, 30 μM, 10 μM", "result": "prevented substrate cleavage in a dose-dependent manner"}]}
{"molecule": "cysteine protease 3C from coxsackievirus B3 (from UniProt P03313 1541-1723) (enzyme)", "values": [{"measurement": "cell growth in selective medium lacking tryptophan after 27 h at 30° C., against cells expressing only the substrate", "setting": "[3]", "result": 60, "unit": "%"}]}
{"molecule": "human cytomegalovirus (CMV) protease, amino acids 1-256 of the 75 kDa precursor (from UniProt P16753 1-256) (enzyme)", "values": [{"measurement": "OD600 of co-expressing RLY07 cells in liquid selective medium after 36 hours, against control cells with an empty plasmid instead of the protease plasmid", "setting": "[4]", "result": 35, "unit": "%"}, {"measurement": "proliferation reduction in medium lacking tryptophan for 38 h (FIG. 3B, lanes 1, 2)", "setting": "[4]", "result": 35, "unit": "%"}, {"measurement": "proliferation reduction in medium lacking tryptophan for 38 h", "setting": "[5]", "result": 85, "unit": "%"}]}
{"molecule": "human cytomegalovirus (CMV) protease, amino acids 1-256 of the 75 kDa precursor (protein) MTMDEQQSQAVAPVYVGGFLARYDQSPDEAELLLPRDVVEHWLHAQGQGQPSLSVALPLNINHDDTAVVGHVAAMQSVRDGLFCLGCVTSPRFLEIVRRASEKSELVSRGPVSPLQPDKVVEFLSGSYAGLSLSSRRCDDVEAATSLSGSETTPFKHVALCSVGRRRGTLAVYGRDPEWVTQRFPDLTAADRDGLRAQWQRCGSTAVDASGDPFRSDSYGLLGNSVDALYIRERLPKLRYDKQLVGVTERESYVKA", "values": [{"measurement": "anti-HA Western blot of yeast extracts, full-length substrate band (FIG. 3C, lane 4)", "setting": "[6]", "result": "active protease has no effect on the point-mutated Trp1(194)-M (A→E) substrate, as the band is also present"}, {"measurement": "anti-HA Western blot of yeast extracts, full-length 33 kDa substrate band (FIG. 3C, lane 2)", "setting": "[7]", "result": "Co-expression of active CMV protease (lane 2) causes disappearance of the full-length substrate"}, {"measurement": "anti-HA Western blot, 33 kDa band (FIG. 5B, lane 2)", "setting": "[7]", "result": "co-expressing the active protease instead of the inactive version causes disappearance of the 33 kDa band"}]}
{"molecule": "inactive version of the CMV protease harbouring the S(132) A mutation at the catalytic site (protein) MTMDEQQSQAVAPVYVGGFLARYDQSPDEAELLLPRDVVEHWLHAQGQGQPSLSVALPLNINHDDTAVVGHVAAMQSVRDGLFCLGCVTSPRFLEIVRRASEKSELVSRGPVSPLQPDKVVEFLSGSYAGLALSSRRCDDVEAATSLSGSETTPFKHVALCSVGRRRGTLAVYGRDPEWVTQRFPDLTAADRDGLRAQWQRCGSTAVDASGDPFRSDSYGLLGNSVDALYIRERLPKLRYDKQLVGVTERESYVKA", "values": [{"measurement": "anti-HA Western blot of yeast extracts, full-length 33 kDa substrate band (FIG. 3C, lane 3)", "setting": "[7]", "result": "the inactive CMV protease does not cleave the Trp1(194)-M substrate (since the full-length substrate band does not disappear)"}, {"measurement": "anti-HA Western blot, 33 kDa band (FIG. 5B, lane 1)", "setting": "[7]", "result": "A 33 kDa band corresponds to the full-length Trp1(194)-M substrate upon co-expression with inactive CMV protease"}]}
